Assay results reported in patent publication EP3818828A1 (priority 2019, dated 2021).
In brackets after ≈: the same amount, converted by molar mass. Where two headings read alike, the source gives them in different places.

Columns and labels:
Assay type in all cases: cell-based
Rhizoctonia solani = assay: Ex vivo mycelial growth inhibition, growth rate method; conditions: Rhizoctonia solani; 1 mg/mL
Excerpt: (§1) 3-(3',4'-methylenedioxy phenyl)-N-n-propyl acrylamide (at a purity of 99%), 3-(3',4'-methylenedioxy phenyl)-piperidine acrylate (at a purity of 99%), the control agents, 96.5% of chlorothalonil technical (non-systemic broad-spectrum fungicide), 97.2% of carbendazim technical (systemic broad-spectrum fungicide), 97.0% of procymidone technical (systemic fungicide), 96.0% of dimethomorphtechnical ((E,Z)-4-[3-(4-chlorphenyl)3-(3,4-dimethoxy phenyl)acryloyl]morpholine, systemic fungicide), 97.0% of azoxystrobin technical (systemic broad-spectrum fungicide).
(§2) The inhibition of samples for testing on the mycelial growth of plant pathogenic fungi for testing is determined with a growth rate method. 3-(3',4'-methylenedioxy phenyl)-N-n-propyl acrylamide, 3-(3',4'-methylenedioxy phenyl)-piperidine acrylate and five control agents are dissolved with dimethyl sulfoxide (DMSO), then formulated at 5-7 concentrations of different gradients for test following the trial test results, with the same concentration of DMSO as the control solvent, each treatment in triplicate. Fungal cakes with a diameter of 4 mm are taken from the edge of the colony, inoculated into the center of a PDA plate containing different agents of different concentrations and the DMSO control, with one piece of fungal cake inoculated in each plate (with a diameter of […]), and incubated in a constant temperature incubator at a temperature of 22±1.5°C. 7 days later (10-20 days may be needed for some pathogenic fungi), the diameter of the colony is measured with a cross over method according to the mycelial growth profile of the control pathogenic fungi, then the inhibition rate of mycelial growth is calculated.
(§3) The computational formula is as below: the inhibition rate of mycelial growth (%) = [(the diameter of the control colony - the diameter of the treated colony)/the diameter of the control colony] × 100.
(§4) The inhibition results of each agent at a concentration of 1 mg/mL on the mycelial growth of plant pathogenic fungi are shown in Tables 1 and 2.

[1] = tested on: F. oxysporum f. sp. vasinfectum; assay: as above; conditions: 1 mg/mL; for inhibition at 1000 µg/mL: Fusarium oxysporum
Excerpt: as §1, §2, §3, §4

Sclerotinia sclerotiorum [2] = assay: as above; conditions: 1 mg/mL
Excerpt: as §1, §2, §3, §4

Phytophthora capsici = assay: as above; conditions: Phytophthora capsici; 1 mg/mL
Excerpt: as §1, §2, §3, §4

F. verticillioide = assay: as above; conditions: 1 mg/mL
Excerpt: as §1, §2, §3, §4

Botrytis cinerea [3] = assay: as above; conditions: 1 mg/mL
Excerpt: as §1, §2, §3, §4

Coniella diplodiella = assay: as above; conditions: 1 mg/mL
Excerpt: as §1, §2, §3, §4

Colletotrichum capsici [4] = assay: as above; conditions: 1 mg/mL
Excerpt: as §1, §2, §3, §4

Exserohilum turcicum [5] = assay: as above; conditions: 1 mg/mL
Excerpt: as §1, §2, §3, §4

[6] = tested on: Botryosphaeria berengeriana; assay: as above; conditions: 1 mg/mL
Excerpt: as §1, §2, §3, §4

F. oxysporum f. sp. lini = assay: as above; conditions: 1 mg/mL; for inhibition at 1000 µg/mL: Fusarium oxysporum
Excerpt: as §1, §2, §3, §4

C. gossypii = assay: as above; conditions: 1 mg/mL; for Average Diameter of the Colony: C. gossypii; for inhibition at 1000 µg/mL: Colletotrichum gossypii, C. cossypii, read-out: Inhibition Rate
Excerpt: as §1, §2, §3, §4

[7] = tested on: Gaeumannomyces graminis var. graminis and G. graminis var. tritici; assay: as above; conditions: 1 mg/mL
Excerpt: as §1, §2, §3, §4

Mycosphaerlla melonis = assay: as above; conditions: 1 mg/mL
Excerpt: as §1, §2, §3, §4

Thanatephorus cucumeris = assay: as above; conditions: 1 mg/mL
Excerpt: as §1, §2, §3, §4

Pythium aphanidermatum = assay: as above; conditions: 1 mg/mL
Excerpt: as §1, §2, §3, §4

[8] = tested on: Botryosphaeriana berengeriana; assay: as above; conditions: 1 mg/mL
Excerpt: as §1, §2, §3, §4

Valsa mali [9] = assay: as above; conditions: 1 mg/mL
Excerpt: as §1, §2, §3, §4

Phytophthora infestans [10] = assay: microbe, parasite or virus in culture; conditions: for Average Diameter of the Colony: 1 mg/mL
F. graminearum [11] = assay: microbe, parasite or virus in culture
Fusarium graminearum [12] = assay: microbe, parasite or virus in culture
Phytophthora infestans [13] = conditions: Phytophthora infestas; 1 mg/mL
Pyricularia grisea = assay: microbe, parasite or virus in culture; conditions: for Average Diameter of the Colony: 1 mg/mL; for inhibition at 1000 µg/mL: read-out: Inhibition Rate
Phytophthora infestans [14] = assay: microbe, parasite or virus in culture
Magnaporthe grisea = assay: microbe, parasite or virus in culture
Sclerotinia sclerotiorum [15] = assay: Toxicity determination (EC50) on mycelial growth, growth rate method
Experimental: as §2
(§5) 3-(3',4'-methylenedioxy phenyl)-piperidine acrylate, the control agents 96.5% of chlorothalonil technical and 97.0% of procymidone technical. Agents for testing and the control agents chlorothalonil and procymidone are treated at 5-8 concentrations of different gradients on the basis of preliminary tests to ensure that the inhibition rates for treatments at all the concentrations are between 10% and 90%.
(§6) For specific determination methods, with reference to Embodiment 1. The concentration of active ingredients in the culture medium is used as the testing concentration to calculate the toxic regression equation (Y=bx+a) and the median inhibition concentration EC50, 95% confidence limit, and relative toxicity. Relative toxicity (compared to chlorothalonil) = EC50 of chlorothalonil / EC50 of 3-(3',4'-methylenedioxy phenyl)-piperidine acrylate, and relative toxicity (compared to procymidone) = EC50 of procymidone / EC50 of 3-(3',4'-methylenedioxy phenyl)-piperidine acrylate.

Botrytis cinerea [16] = assay: as above
Experimental: as §2, §5, §6

Colletotrichum capsici [17] = assay: as above
Experimental: as §2, §5, §6

Exserohilum turcicum [18] = assay: as above
Experimental: as §2, §5, §6

Valsa mali [19] = assay: as above
Experimental: as §2, §5, §6

Fusarium graminearum [20] = assay: microbe, parasite or virus in culture; remark: listed apart in the source
F. graminearum [21] = assay: microbe, parasite or virus in culture; conditions: for Average Diameter of the Colony: F. graminearum, 1 mg/mL; for inhibition at 1000 µg/mL: Fusarium graminearum, read-out: Inhibition Rate
[22] = EC50 of chlorothalonil / EC50 of agent
[23] = EC50 of procymidone / EC50 of agent
[24] = median inhibition concentration

N#Cc1c(Cl)c(Cl)c(Cl)c(C#N)c1Cl [Chlorothalonil, chlorothalonil]
Average Diameter of the Colony (Rhizoctonia solani): 0.00 cm
inhibition at 1000 µg/mL (Rhizoctonia solani): 100%
Average Diameter of the Colony [1]: 2.45 cm
inhibition at 1000 µg/mL [1]: 66.2%
Average Diameter of the Colony (Sclerotinia sclerotiorum [2]): 0.00 cm
inhibition at 1000 µg/mL (Sclerotinia sclerotiorum [2]): 100%
Average Diameter of the Colony (Phytophthora capsici): 0.91 cm
inhibition at 1000 µg/mL (Phytophthora capsici): 82.8%
Average Diameter of the Colony (F. verticillioide): 0.87 cm
inhibition at 1000 µg/mL (F. verticillioide): 74.3%
Average Diameter of the Colony (Botrytis cinerea [3]): 1.16 cm
inhibition at 1000 µg/mL (Botrytis cinerea [3]): 84.5%
Average Diameter of the Colony (Coniella diplodiella): 0.00 cm
inhibition at 1000 µg/mL (Coniella diplodiella): 100%
Average Diameter of the Colony (Colletotrichum capsici [4]): 1.95 cm
inhibition at 1000 µg/mL (Colletotrichum capsici [4]; Colletotrichum truncatum): 71.2%
Average Diameter of the Colony (Exserohilum turcicum [5]): 1.41 cm
inhibition at 1000 µg/mL (Exserohilum turcicum [5]): 77.3%
Average Diameter of the Colony [6]: 2.11 cm
inhibition at 1000 µg/mL [6]: 69%
Average Diameter of the Colony (F. oxysporum f. sp. lini): 3.73 cm
inhibition at 1000 µg/mL (F. oxysporum f. sp. lini): 58.6%
Average Diameter of the Colony (C. gossypii): 1.45 cm
inhibition at 1000 µg/mL (C. gossypii): 73.2%
Average Diameter of the Colony [7]: 2.51 cm
inhibition at 1000 µg/mL [7]: 64.9%
Average Diameter of the Colony (Mycosphaerlla melonis): 2.16 cm
inhibition at 1000 µg/mL (Mycosphaerlla melonis): 74.9%
Average Diameter of the Colony (Thanatephorus cucumeris): 1.05 cm
inhibition at 1000 µg/mL (Thanatephorus cucumeris): 87.8%
Average Diameter of the Colony (Pythium aphanidermatum): 1.14 cm
inhibition at 1000 µg/mL (Pythium aphanidermatum): 83%
Average Diameter of the Colony [8]: 0.94 cm
inhibition at 1000 µg/mL [8]: 83.5%
Average Diameter of the Colony (Valsa mali [9]): 1.65 cm
inhibition at 1000 µg/mL (Valsa mali [9]; Cytospora mali): 79.1%
Average Diameter of the Colony (Phytophthora infestans [10]): 0.20 cm
Relative Toxicity (Compared to Chlorothalonil) (F. graminearum [11]; [22]): 1.00
Relative Toxicity (Compared to Procymidone) (F. graminearum [11]; [23]): 3.75
EC50 (F. graminearum [11]; Fusarium graminearum, median inhibition concentration): 227 µg/mL (≈ 853 µM)
Relative Toxicity (Compared to Chlorothalonil) (Fusarium graminearum [12]; [22]): 1.00
Relative Toxicity (Compared to Procymidone) (Fusarium graminearum [12]; [23]): 0.31
EC50 (Fusarium graminearum [12]; [24]): 469 µg/mL (≈ 1760 µM)
Average Diameter of the Colony (Phytophthora infestans [13]): 1.78 cm
Average Diameter of the Colony (Pyricularia grisea): 1.63 cm
inhibition at 1000 µg/mL (Pyricularia grisea): 81.9%
Relative Toxicity (Compared to Chlorothalonil) (Phytophthora infestans [14]; [22]): 1.00
Relative Toxicity (Compared to Procymidone) (Phytophthora infestans [14]; [23]): 6.78
EC50 (Phytophthora infestans [14]; [24]): 115 µg/mL (≈ 431 µM)
Relative Toxicity (Compared to Chlorothalonil) (Magnaporthe grisea; [22]): 1.00
Relative Toxicity (Compared to Procymidone) (Magnaporthe grisea; [23]): 0.71
EC50 (Magnaporthe grisea; Pyricularia oryzae, median inhibition concentration): 436 µg/mL (≈ 1640 µM)
Relative Toxicity (Compared to Chlorothalonil) (Sclerotinia sclerotiorum [15]; [22]): 1.00
Relative Toxicity (Compared to Procymidone) (Sclerotinia sclerotiorum [15]; [23]): 1.13
EC50 (Sclerotinia sclerotiorum [15]; [24]): 62.7 µg/mL (≈ 236 µM)
Relative Toxicity (Compared to Chlorothalonil) (Botrytis cinerea [16]; [22]): 1.00
Relative Toxicity (Compared to Procymidone) (Botrytis cinerea [16]; [23]): 0.45
EC50 (Botrytis cinerea [16]; [24]): 177 µg/mL (≈ 665 µM)
EC50 (Colletotrichum capsici [17]; Colletotrichum truncatum, median inhibition concentration, read-out: EC50): 404 µg/mL (≈ 1520 µM)
Relative Toxicity (Compared to Chlorothalonil) (Colletotrichum capsici [17]; [22]): 1.00
Relative Toxicity (Compared to Procymidone) (Colletotrichum capsici [17]; [23]): 1.28
Relative Toxicity (Compared to Chlorothalonil) (Exserohilum turcicum [18]; [22]): 1.00
Relative Toxicity (Compared to Procymidone) (Exserohilum turcicum [18]; [23]): 0.26
EC50 (Exserohilum turcicum [18]; median inhibition concentration, read-out: EC50): 411 µg/mL (≈ 1550 µM)
EC50 (Valsa mali [19]; Cytospora mali, median inhibition concentration, read-out: EC50): 418 µg/mL (≈ 1570 µM)
Relative Toxicity (Compared to Chlorothalonil) (Valsa mali [19]; [22]): 1.00
Relative Toxicity (Compared to Procymidone) (Valsa mali [19]; [23]): 1.02
Average Diameter of the Colony (Fusarium graminearum [20]; 1 mg/mL): 0.71 cm
inhibition at 1000 µg/mL (Fusarium graminearum [20]; read-out: Inhibition Rate): 86.7%
Average Diameter of the Colony (F. graminearum [21]): 1.92 cm
inhibition at 1000 µg/mL (F. graminearum [21]): 77.7%

COc1ccc(C(=CC(=O)N2CCOCC2)c2ccc(Cl)cc2)cc1OC [Dimethomorph, (E,Z)-4-[3-(4-chlorphenyl)3-(3,4-dimethoxyphenyl)acryloyl]morpholine]
Average Diameter of the Colony [1]: 6.03 cm
inhibition at 1000 µg/mL [1]: 33%
Average Diameter of the Colony (Sclerotinia sclerotiorum [2]): 4.77 cm
inhibition at 1000 µg/mL (Sclerotinia sclerotiorum [2]): 47%
Average Diameter of the Colony (Phytophthora capsici): 0.00 cm
inhibition at 1000 µg/mL (Phytophthora capsici): 100%
Average Diameter of the Colony (Botrytis cinerea [3]): 2.33 cm
inhibition at 1000 µg/mL (Botrytis cinerea [3]): 74.1%
Average Diameter of the Colony (Exserohilum turcicum [5]): 6.50 cm
inhibition at 1000 µg/mL (Exserohilum turcicum [5]): 27.8%
Average Diameter of the Colony (F. oxysporum f. sp. lini): 6.27 cm
inhibition at 1000 µg/mL (F. oxysporum f. sp. lini): 30.3%
Average Diameter of the Colony (C. gossypii): 3.93 cm
inhibition at 1000 µg/mL (C. gossypii): 56.3%
Average Diameter of the Colony (Mycosphaerlla melonis): 2.13 cm
inhibition at 1000 µg/mL (Mycosphaerlla melonis): 76.3%
Average Diameter of the Colony (Phytophthora infestans [10]): 0.00 cm
inhibition at 1000 µg/mL (Phytophthora infestans [10]; read-out: Inhibition Rate): 100%
Average Diameter of the Colony (Pyricularia grisea): 6.67 cm
inhibition at 1000 µg/mL (Pyricularia grisea): 25.9%
Average Diameter of the Colony (F. graminearum [21]): 6.23 cm
inhibition at 1000 µg/mL (F. graminearum [21]): 30.8%
